Assays:
Calf thymus DNA [1] = experiment: Displacement of EtBr from calf thymus DNA incubated for 3 mins by fluorescence based assay; assay type: tissue-based; conditions: Bos taurus
Albumin [2] = target: T1, Albumin (Homo sapiens, UniProt P02768); experiment: Binding affinity to human serum albumin […]; assay type: ADME, cell-free
Albumin [3] = target: T1, Albumin; experiment: Binding affinity to human serum albumin assessed as quenching constant by Stern-Volmer plot analysis; assay type: ADME, cell-free
Calf thymus DNA [4] = experiment: Displacement of EtBr from calf thymus DNA assessed per base pair incubated for 3 mins by fluorescence based assay; assay type: tissue-based; conditions: Bos taurus
Calf thymus DNA [5] = experiment: Binding affinity to calf thymus DNA assessed as change in melting temperature at DNA to ligand ratio at 40:1 by spectrophotometric method; assay type: tissue-based; conditions: Bos taurus
Calf thymus DNA [6] = experiment: Displacement of EtBr from calf thymus DNA at 50 uM incubated for 3 mins by fluorescence based assay relative to control; assay type: tissue-based; conditions: Bos taurus

T1 sequence (P02768 whole entry): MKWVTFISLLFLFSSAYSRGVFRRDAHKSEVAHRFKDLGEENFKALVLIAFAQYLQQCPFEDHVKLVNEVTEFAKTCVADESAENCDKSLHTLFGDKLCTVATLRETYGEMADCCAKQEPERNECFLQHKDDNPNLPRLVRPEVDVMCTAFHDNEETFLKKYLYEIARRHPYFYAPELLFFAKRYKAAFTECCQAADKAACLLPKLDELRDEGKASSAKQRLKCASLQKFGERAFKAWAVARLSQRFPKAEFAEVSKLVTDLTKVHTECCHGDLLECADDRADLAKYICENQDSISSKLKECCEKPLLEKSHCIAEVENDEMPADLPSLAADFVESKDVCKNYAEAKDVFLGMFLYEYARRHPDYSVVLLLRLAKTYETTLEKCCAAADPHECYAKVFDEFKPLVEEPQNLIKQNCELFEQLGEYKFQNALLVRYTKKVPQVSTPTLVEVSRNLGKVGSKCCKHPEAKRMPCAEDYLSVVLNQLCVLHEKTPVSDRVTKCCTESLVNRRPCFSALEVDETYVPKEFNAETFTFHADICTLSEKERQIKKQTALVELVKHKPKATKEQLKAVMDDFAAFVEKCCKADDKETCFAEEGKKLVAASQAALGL

SMILES	Kb (Albumin [2])	KSV (Albumin [3])	C50 (Calf thymus DNA [1]) [µM]	Kapp (Calf thymus DNA [4])	ΔTm (Calf thymus DNA [5]) [°C]	Activity (Calf thymus DNA [6]) [%]
C/C=C(\C)C(=O)O[C@@H](C)C[C@H]1CCCN1C(=O)CCCCCCCCC	16 10^4/M	1.3 10^5/M	340	–	–	–
Cn1cc(NC(=O)c2cc(NC(=O)CNC(=N)N)cn2C)cc1C(=O)NCCC(=N)N	–	–	10	5.1 10^6/M	0.7	–
OC[C@H]1O[C@H](O)[C@H](O)[C@@H](O)[C@@H]1O	–	–	390	–	10.3	–

More lines, main results first:

Kb (Albumin [2])	KSV (Albumin [3])	SMILES	C50 (Calf thymus DNA [1]) [µM]	Kapp (Calf thymus DNA [4])	ΔTm (Calf thymus DNA [5]) [°C]	Activity (Calf thymus DNA [6]) [%]
5.9 10^4/M	3 10^4/M	C/C=C(\C)C(=O)O[C@H](C)C[C@@H]1CCCN1C(=O)CCCCCCCCC	380	–	–	–
6.4 10^4/M	7.2 10^5/M	C/C=C(\C)C(=O)O[C@H](C)C[C@H]1CCCN1C(=O)CCCCCCCCC	480	1.8 10^5/M	–	93
7.2 10^4/M	3 10^4/M	C/C=C(\C)C(=O)O[C@@H](C)C[C@@H]1CCCN1C(=O)CCCCCCCCC	470	–	–	–

Source: ChEMBL document CHEMBL4699560, “Synthesis and Stereochemical Assignment of Conioidine A: DNA- and HSA-Binding Studies of the Four Diastereomers” (J Nat Prod, 2020)
